Measurements published in US20050159425A1, “Methods of therapy” (priority 2002, published 2005).

Legend:
[1] = test system: type IV PDE; conditions: cited from earlier work; for IC50: type IV PDE selective inhibitor
[2] = test system: PDE; conditions: cited from earlier work
[3] = in vivo; cited from earlier work
[4] = test system: phosphodiesterase IV b mRNA; assay: phosphodiesterase IV-b mRNA in U937 cells (Taqman); assay type: cell-based, human; conditions: four hours of incubation; for PDE activity (phosphodiesterase IV b mRNA) after application: PGE 1×10^−6, 19-hydroxy PGE2 5×10^−6, without rolipram
Experimental: Template was amplified in a Taqman 7700 machine for 40 cycles using FAM/TAMRA dyes on the probe. The Applied Biosystems kit was used to amplify and detect ribosomal (18S)RNA (using VIC/TAMRA dyes) as an internal control in the same reaction tube. After 40 cycles the Ct (related to cycle number at which signal appears) for the FAM and the 18S (VIC) were recorded and […] relative quantitation was achieved using the formula 2^−ΔΔCt where Δ refers to the difference between the FAM and VIC signal related to an standard comparator included in each run.
The mRNA for phosphodiesterase IV-b was measured as described in Example 2 above. mRNA was extracted after four hours of incubation. The concentration of the PGE was 1×10^−6 and that of the 19-hydroxy PGE2 was 5×10^−6. The following primers and Taqman probe were used for quantitation of PDE IV b mRNA.

[5] = test system: IL-10 release from U937 cells; assay: IL-10 release from U937 cells (ELISA); assay type: cell-based, human
Experimental: U 937 cells were grown in RPMI (PAA Laboratories) medium with 10% fetal calf serum added (PAA Laboratories). 2×10^6 cells per flask were treated with prostaglandin E2 at 10^−6 Molar or with Rolipram (4×10^−6) for 24 hours. Medium was removed at 20 hours and analysed by ELISA. A capture antibody (Pharmingen) was coated onto 96 well plates and culture medium was added each well. A standard curve was created with recombinant IL-10 protein. After incubation and washing, a biotin labelled monoclonal antibody (Pharmingen) was added and following incubation and washing, peroxidase labelled streptavidin was added. After washing a tetramethyl benzidine substrate was added and colour developed in proportion to IL-10 in the original sample/standard. Colour was read using a plate photometer (Labsystems, Multiskan). Mean concentrations (N=3) in controls with no lipopolysaccharide (LPS) were […] and in the presence of LPS (100 nM) they were 43.9 […].
The effect of PGE1, PGE2, 19 hydroxy PGE1 and 19 hydroxy PGE2 on the stimulation of IL-10 in the presence and absence of rolipram was investigated as described above in Example 2. IL-10 levels were measured using an ELISA assay (R&D Ltd, Oxford). Measurement was performed according to the manufacturer's instructions.

[6] = test system: monocyte/macrophages stimulated with lipopolysaccharide (LPS); conditions: cited from earlier work

Compound: Cn1c(=O)c2[nH]cnc2n(C)c1=O [theophylline]
- times less effective than rolipram ([1]; non-selective inhibitor compared with rolipram): 30 times

Compound: Cn1c(=O)c2c(ncn2C)n(C)c1=O [caffeine]
- activity as non-specific PDE inhibitor ([2]; compared with theophylline, IBMX and pentoxifylline): not as active as the others

Compound: CCCCC(C)(O)CC=C[C@H]1[C@H](O)CC(=O)[C@@H]1CCCCCCC(=O)OC (mixture of isomers) [Cytotec, (±) methyl 11α, 16-dihydroxy-16-methyl-9-oxoprost-13-enoate]
- hypotension [3]: does not cause hypotension

Compound: 19-hydroxy PGE2
- PDE activity (phosphodiesterase IV b mRNA) after application [4]: increase
- concentration necessary to achieve similar effects to PGE ([5]; compared with PGE): higher concentration
- stimulation of IL-10 in the presence of a PDE inhibitor [5]: increased strikingly

Compound: CCCCC[C@H](O)/C=C/[C@H]1[C@H](O)CC(=O)[C@@H]1C/C=C\CCCC(=O)O [PGE2, prostaglandin E2]
- PDE activity (phosphodiesterase IV b mRNA) after application [4]: increase
- PDE message levels with a type IV selective PDE inhibitor ([4]; with type IV selective PDE inhibitor (rolipram)): increases PDE message levels even further
- effect on release of IL-10 in combination with PDE inhibitor rolipram ([5]; combination with rolipram): synergistic
- stimulation of IL-10 in the presence of a PDE inhibitor [5]: increased strikingly

Compound: CCCCOc1cc(CC2CNC(=O)N2)ccc1OC (stereo not shown) [Ro-20-1724, 4-[3-butoxy-4-methoxybenzyl]-2-imidazolidinone]
- IC50 [1]: 2000 nM

Compound: COc1ccc(C2CNC(=O)NC2)cc1O[C@H]1C[C@@H]2CC[C@H]1C2 [CP 80 633]
- type IV PDE inhibition [1]: potent type IV inhibitors

Compound: COc1ccc(C2CNC(=O)C2)cc1OC1CCCC1 (stereo not shown) [rolipram, 4-[3-cyclopentyloxy-4-methoxyphenyl]-2-pyrrolidinone]
- IL-10 levels [6]: raise
- cAMP levels [6]: raise
- IC50 [1]: 800 nM

Compound: CC(C)Cn1c(=O)n(C)c(=O)c2[nH]cnc21 [IBMX, 3-isobutyl-1-methylxanthine]
- IC50 ([2]; non-specific PDE inhibitor): 2000 to 50000 nM
